In this assay the test system is MCH receptors. The assay is described as follows: MCH receptor activity class (method not given). Conditions: class by percent of control at 10^-7 M or IC50.

For the compound `COc1ccccc1NC(=S)N[C@H]1CC[C@@H](Nc2cc(N(C)C)c3ccccc3n2)CC1` [compound 2173], the class was 3 (Class 3 The value of percent of control at 10^−7 M was more than 60% or the value of IC50 was more than 200 nM.).

Consider `CN(C)c1cc(N[C@H]2CC[C@@H](NC(=S)Nc3cccc4ccccc34)CC2)nc2ccccc12` [compound 2174], for which the class is 3 (Class 3 The value of percent of control at 10^−7 M was more than 60% or the value of IC50 was more than 200 nM.).

Regarding `COc1cc(NC(=S)N[C@H]2CC[C@@H](Nc3cc(N(C)C)c4ccccc4n3)CC2)cc(OC)c1OC` [compound 2175, N-(cis-4-{[4-(dimethylamino)quinolin-2-yl]amino}cyclohexyl)-N′-(3,4,5-trimethoxyphenyl)thiourea], the class is recorded as 1 (Class 1: The value of percent of control at 10^−7 M was less than 40% or the value of IC50 was less than 50 nM.).

On to `COc1ccc(NC(=S)N[C@H]2CC[C@@H](Nc3cc(N(C)C)c4ccccc4n3)CC2)cc1OC` [compound 2176], for which the class is listed as 3 (Class 3 The value of percent of control at 10^−7 M was more than 60% or the value of IC50 was more than 200 nM.).

Turning to `CN(C)c1cc(N[C@H]2CC[C@@H](NC(=S)Nc3ccc(N(C)C)c4ccccc34)CC2)nc2ccccc12` [compound 2177, N-[4-(dimethylamino)-1-naphthyl]-N′-(cis-4-{[4-(dimethylamino)quinolin-2-yl]amino}cyclohexyl)thiourea], the class is listed as 2 (Class 2: The value of percent of control at 10^−7 M was from 40% to 60% or the value of IC′50 was from 50 nM to 200 nM.).

With `CCc1ccccc1NC(=S)N[C@H]1CC[C@@H](Nc2cc(N(C)C)c3ccccc3n2)CC1` [compound 2178], the class is given as 3 (Class 3 The value of percent of control at 10^−7 M was more than 60% or the value of IC50 was more than 200 nM.).

As to `CN(C)c1ccnc(N[C@H]2CC[C@@H](NC(=O)Nc3ccccc3Cl)CC2)n1` [compound 2179], the class is recorded as 3 (Class 3 The value of percent of control at 10^−7 M was more than 60% or the value of IC50 was more than 200 nM.).

For the compound `Cc1cccc(C)c1NC(=O)N[C@H]1CC[C@@H](Nc2nccc(N(C)C)n2)CC1` [compound 2180], the class was 3 (Class 3 The value of percent of control at 10^−7 M was more than 60% or the value of IC50 was more than 200 nM.).

As for `CN(C)c1ccnc(N[C@H]2CC[C@@H](NC(=O)Nc3ccc(F)cc3F)CC2)n1` [compound 2181], the class was 3 (Class 3 The value of percent of control at 10^−7 M was more than 60% or the value of IC50 was more than 200 nM.).

With `CCc1cccc(C)c1NC(=O)N[C@H]1CC[C@@H](Nc2nccc(N(C)C)n2)CC1` [compound 2182], the class is 3 (Class 3 The value of percent of control at 10^−7 M was more than 60% or the value of IC50 was more than 200 nM.).

In the case of `CN(C)c1ccnc(N[C@H]2CC[C@@H](NC(=O)Nc3ccc(F)cc3)CC2)n1` [compound 2184], the class is listed as 3 (Class 3 The value of percent of control at 10^−7 M was more than 60% or the value of IC50 was more than 200 nM.).

As for `CSc1ccc(NC(=O)N[C@H]2CC[C@@H](Nc3nccc(N(C)C)n3)CC2)cc1` [compound 2185], the class is 3 (Class 3 The value of percent of control at 10^−7 M was more than 60% or the value of IC50 was more than 200 nM.).

In the case of `CN(C)c1ccnc(N[C@H]2CC[C@@H](NC(=O)Nc3ccccc3C(F)(F)F)CC2)n1` [compound 2186], the class is on record as 3 (Class 3 The value of percent of control at 10^−7 M was more than 60% or the value of IC50 was more than 200 nM.).

For the compound `Cc1cc(C)c(NC(=O)N[C@H]2CC[C@@H](Nc3nccc(N(C)C)n3)CC2)c(C)c1` [compound 2187, N-(cis-4-{[4-(dimethylamino)pyrimidin-2-yl]amino}cyclohexyl)-N′-mesitylurea], the class is 2 (Class 2: The value of percent of control at 10^−7 M was from 40% to 60% or the value of IC′50 was from 50 nM to 200 nM.).

As for `Cc1ccccc1NC(=O)N[C@H]1CC[C@@H](Nc2nccc(N(C)C)n2)CC1` [compound 2188], the class is on record as 3 (Class 3 The value of percent of control at 10^−7 M was more than 60% or the value of IC50 was more than 200 nM.).
